From ChEMBL document CHEMBL1667742, “Angiotensin II receptor type 1 (AT1) selective nonpeptidic antagonists--a perspective” (Bioorg Med Chem, 2010)
Where a chain is given by its changes, count along the chain named.

Legend:
[1] = Binding affinity to angiotensin AT1 receptor in rat liver membranes; type: cell membranes, Membrane
[2] = biological target: T1, Type-1 angiotensin II receptor (Homo sapiens) (UniProt P30556); test: Ratio of compound IC50 to losartan IC50 for angiotensin AT1 receptor
T1 sequence (whole entry): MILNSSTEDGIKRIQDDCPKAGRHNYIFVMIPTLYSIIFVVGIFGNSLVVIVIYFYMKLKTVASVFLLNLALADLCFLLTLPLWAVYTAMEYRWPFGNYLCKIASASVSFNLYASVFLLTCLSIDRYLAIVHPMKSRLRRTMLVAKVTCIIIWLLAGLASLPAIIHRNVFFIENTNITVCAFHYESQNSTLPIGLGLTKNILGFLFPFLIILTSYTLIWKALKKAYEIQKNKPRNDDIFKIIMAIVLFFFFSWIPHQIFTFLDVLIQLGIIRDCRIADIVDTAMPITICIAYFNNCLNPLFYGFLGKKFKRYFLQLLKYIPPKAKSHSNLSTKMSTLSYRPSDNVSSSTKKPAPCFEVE

[3] = Oral bioavailability in cynomolgus monkey; type: ADME, organism-based, Macaca fascicularis; conditions: in vivo
[4] = Oral bioavailability in rat; type: ADME, organism-based; conditions: in vivo
[5] = Oral bioavailability in dog; type: ADME, organism-based, Canis lupus familiaris; conditions: in vivo
[6] = Displacement of [3H]-angiotensin 2 from angiotensin AT1 receptor in rat liver membranes; type: cell membranes, Membrane
[7] = biological target: T2, Type-1 angiotensin II receptor (Oryctolagus cuniculus) (UniProt P34976); test: Antagonist activity at angiotensin AT1 receptor in rabbit aorta; type: functional, tissue-based
T2 sequence (whole entry): T1 sequence (whole entry) with I2M, V49A, I254V, I270V, R272H, R311K, T349S, A353V

Rattus norvegicus [8] = species: Rattus norvegicus; test: Antihypertensive activity in spontaneous hypertensive rat model assessed as reduction of blood pressure; type: functional
[9] = biological target: T1, Type-1 angiotensin II receptor (Homo sapiens); test: (§1) Antagonist activity at angiotensin AT1 receptor; type: functional
[10] = biological target: T1, Type-1 angiotensin II receptor (Homo sapiens); test: Ratio of compound Ki to losartan Ki for angiotensin AT1 receptor
Rattus norvegicus [11] = test: Ratio of compound ED50 to losartan ED50 for po dosed renal hypertensive rat model; type: functional
Rattus norvegicus [12] = test: Antihypertensive activity in iv dosed salt depleted SHR rat model assessed as reduction of angiotensin 2-induced mean arterial pressure at […]; type: functional, Artery; parameters: scale not given: the % may be the effect or the level left
[13] = Displacement of [125I]-Sar1Ile8-angiotensin 2 from angiotensin AT1 receptor in rat adrenal cortical membranes; type: cell membranes, Membrane
[14] = Displacement of [125I]-Sar1Ile8-angiotensin 2 from angiotensin AT1 receptor in rat aortic smooth muscle cells
Rattus norvegicus [15] = test: Antihypertensive activity in iv dosed salt depleted SHR rat model assessed as reduction of angiotensin 2-induced response; type: functional
Rattus norvegicus [16] = test: Inhibition of angiotensin 2-induced response in iv dosed conscious Sprague-Dawley rat; type: functional
[17] = Binding affinity to angiotensin AT1 receptor in rat lung membranes; type: cell membranes, Membrane
Rattus norvegicus [18] = test: Inhibition of angiotensin 2-induced response in iv dosed pithed normotensive rat; type: functional
Rattus norvegicus [19] = test: Inhibition of angiotensin 2-induced response in intraduodenally dosed pithed normotensive rat; type: functional
Rattus norvegicus [20] = test: Antihypertensive activity in conscious normotensive rat assessed as inhibition of angiotensin 2-induced pressor response at 1 mg/kg, iv after 6 hrs; type: functional
[21] = biological target: T3, Type-1 angiotensin II receptor (Homo sapiens, UniProt P30556); test: as §1; type: functional
T3 sequence (P30556 whole entry): T1 sequence (whole entry)

Rattus norvegicus [22] = test: Antihypertensive activity in iv dosed conscious rat; type: functional
Rattus norvegicus [23] = test: Antihypertensive activity in po dosed conscious rat; type: functional; conditions: read-out: ED50
[24] = biological target: T4, Type-2 angiotensin II receptor (Homo sapiens, UniProt P50052); test: (§2) Binding affinity to angiotensin AT2 receptor
T4 sequence (P50052 whole entry): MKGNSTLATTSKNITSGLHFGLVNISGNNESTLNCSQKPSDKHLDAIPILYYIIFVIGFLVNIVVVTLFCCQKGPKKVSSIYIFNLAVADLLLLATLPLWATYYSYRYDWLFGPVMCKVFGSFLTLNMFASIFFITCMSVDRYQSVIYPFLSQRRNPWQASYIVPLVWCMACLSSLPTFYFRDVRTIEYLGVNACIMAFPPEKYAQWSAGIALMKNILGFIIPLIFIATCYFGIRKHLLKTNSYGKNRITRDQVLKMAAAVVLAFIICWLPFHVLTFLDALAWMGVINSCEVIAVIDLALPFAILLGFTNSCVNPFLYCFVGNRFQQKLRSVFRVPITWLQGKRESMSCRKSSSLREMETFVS

[25] = biological target: T5, Type-2 angiotensin II receptor (Homo sapiens) (UniProt P50052); test: as §2; conditions: concentration not given here
T5 sequence (whole entry): T4 sequence (P50052 whole entry)

Rattus norvegicus [26] = test: Antihypertensive activity in conscious normotensive rat after 24 hrs; type: functional
[27] = biological target: T3, Type-1 angiotensin II receptor; test: Antagonist activity at angiotensin AT1 receptor in human PLC-PRF5 cells; type: functional, cell-based
[28] = biological target: T3, Type-1 angiotensin II receptor; test: Displacement of [3H]-angiotensin 2 from angiotensin AT1 receptor in human PLC-PRF5 cells; type: cell-based
Rattus norvegicus [29] = test: Antihypertensive activity in iv dosed renal artery ligated rat model assessed as reduction of means arterial blood pressure by 30 mm Hg; type: functional
[30] = Displacement of radiolabeled angiotensin2 from angiotensin AT1 receptor in rat adrenal cortex membranes; type: cell membranes, Membrane

For `CCCCC1=NC2(CCCC2)C(=O)N1Cc1ccc(-c2ccccc2-c2nnn[nH]2)cc1` [IRBESARTAN], which IC50 [1] is on record?
Its IC50 is 1.3 nM.

And the Ratio IC50 [2]?
The Ratio IC50 was 10.

Which results are given for `CCCN(Cc1ccc(-c2ccccc2-c2nn[nH]n2)cc1)c1ncccc1C(=O)O`?
bioavailability [3]: > 50%; bioavailability [4]: > 50%; Ki [1]: 0.76 nM; bioavailability [5]: > 50%

With `CCc1nc(C2CC2)c(C(N)=O)n1Cc1ccc2oc(-c3ccccc3NS(=O)(=O)C(F)(F)F)c(Br)c2c1` as the molecule, how does the pKi [6] read?
Its pKi is 9.3.

What about the pKb [7] of the same molecule?
Its pKb is 9.

With `CCCCC1=NC(Cl)=C(C(=O)O)C(C)N1Cc1ccc(-c2ccccc2-c2nn[nH]n2)cc1` (centres undefined) as the molecule, how does the ED50 (Rattus norvegicus [8]) read?
The ED50 was 0.08 µmol/kg.

What about the Kb [9] of the same molecule?
The Kb was 0.45 nM.

And the Ratio Ki [10]?
Its Ratio Ki is 10.

What about the “Ratio ED50” value (Rattus norvegicus [11]) of the same molecule?
Its value is 20.

Which results are given for `CCCCc1nc(Cl)c(C(=O)[O-])n1Cc1cccc2c1ccn2-c1ccccc1-c1nn[n-]n1.[Li+].[Li+]`?
Activity (Rattus norvegicus [12]): 39%; Ki [13]: 18.4 nM; Ki [14]: 7.6 nM; ED50 (Rattus norvegicus [15]): 0.03 µmol/kg; ED50 (Rattus norvegicus [16]): 0.22 µmol/kg

For `CCCc1nc2c(C)cc(-c3nc4ccccc4n3C)cc2n1Cc1ccc(-c2ccccc2C(=O)O)cc1`, which Ki [17] is on record?
The Ki was 3.7 nM.

Which ED50 (Rattus norvegicus [18]) does the source give for `CCc1nc2c(C)cc(C)nc2n1Cc1ccc(-c2ccccc2S(=O)(=O)NC(=O)NCC2CC2)cc1` here?
Its ED50 is 0.014 µmol/kg.

What about the IC50 [1] of the same molecule?
Its IC50 is 1000 nM.

What about the ED50 (Rattus norvegicus [19]; Rattus norvegicus, intraduodenal) of the same molecule?
Its ED50 is 0.012 mg/kg.

With `CCc1nc2c(C)cc(C)nn2c1Cc1ccc(-c2ccccc2-c2nn[nH]n2)cc1` as the molecule, how does the inhibition in vivo at 1 mg/kg (Rattus norvegicus [20]) read?
The inhibition in vivo at 1 mg/kg was 90%.

For `CC1CC(=O)NN=C1c1ccc2nc(C3CC3)n(Cc3ccc(-c4ccccc4-c4nn[nH]n4)cc3)c2c1` (centres undefined), which IC50 [21] is on record?
The IC50 was 1.8 nM.

What about the “inhibition (INH)” value (Rattus norvegicus [19]) of the same molecule?
The value was 80%.

Which ED50 (Rattus norvegicus [22]) does the source give for `CCCCc1nc2ccc(NC(=O)N(C)C(C)C)cc2c(=O)n1Cc1ccc(-c2ccccc2-c2nn[nH]n2)cc1` here?
Its ED50 is 0.25 mg/kg.

What about the ED50 (Rattus norvegicus [23]) of the same molecule?
The ED50 was 0.68 mg/kg.

For `CCCCc1nn(-c2ccccc2C(F)(F)F)c(=O)n1Cc1ccc(-c2ccccc2-c2nn[nH]n2)cc1`, which inhibition in vivo at 1 mg/kg (Rattus norvegicus [20]) is on record?
Its inhibition in vivo at 1 mg/kg is 70%.

Which results are given for `CCc1nc2c(C)cc(C)nc2n1Cc1ccc(-c2ccsc2-c2nn[nH]n2)cc1`?
IC50 [24]: 2.3 nM; inhibition [25]: 90%

For `CCCc1nn(Cc2ccccc2)c(C(=O)O)c1Cc1ccc(-c2ccccc2-c2nn[nH]n2)cc1`, which Activity (Rattus norvegicus [26]) is on record?
The Activity was 90%.

For `CCCCN1CC2(CN1Cc1ccc(-c3ccccc3S(=O)(=O)NC(=O)c3ccccc3)cc1)C(=O)CCC2=O`, which IC50 [27] is on record?
The IC50 was 12 nM.

And the Ki [28]?
The Ki was 10 nM.

For `CCCCc1nc(Cl)c(C(=O)O)n1Cc1ccc(-c2ccccc2-c2nn[nH]n2)cc1` [CARBOXYLIC ACID METABOLITE], which ED30 (Rattus norvegicus [29]) is on record?
Its ED30 is 0.038 mg/kg.

And the IC50 [30]?
The IC50 was 0.37 nM.
